Patent publication US9980943B2, “Methods of treating muscular dystrophy” (BOARD OF REGENTS OF THE NEVADA SYSTEM OF HIGHER EDUCATION, …, priority 2013, dated 2018)

Experiments:
Assay type in all cases: cell-based, mouse
[1] = test system: α7 integrin (LacZ reporter in α7βgal+/− myoblasts); test: Myoblast α7+/LacZ integrin FDG assay (Burkin assay in myoblasts, 96-well); details: α7+/LacZ myoblasts, 96-well
[2] = test system: β-galactosidase in CMV-LacZ C2C12 myotubes; test: CMV-LacZ secondary screen in C2C12 myotubes (β-Gal stabilizing assay); details: C2C12 CMV-LacZ myotubes, fold relative to DMSO
Procedure, shortened: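 β-gal stabilization was measured in C2C12 myoblasts or myotubes stably transfected with a CMV-driven LacZ construct, using the FDG β-gal assay. Compounds were tested in dose-response at 0.5, 1, 5, 10, 20 and 40 μM, with two replicates per point.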

[3] = test system: α7 integrin (LacZ reporter in α7+/LacZ myotubes); test: Myotube α7 integrin FDG assay (Burkin assay in myotubes, 96-well); details: myotubes

Structure (SMILES) | Burkin Assay in Myoblasts, signal relative to DMSO ([1]; 0.5 uM) | Burkin Assay in Myoblasts, signal relative to DMSO ([1]; 1 uM) | Burkin Assay in Myoblasts, signal relative to DMSO ([1]; 5 uM) | Burkin Assay in Myoblasts, signal relative to DMSO ([1]; 10 uM) | Burkin Assay in Myoblasts, signal relative to DMSO ([1]; 20 uM) | Burkin Assay in Myoblasts, signal relative to DMSO ([1]; 40 uM) | CMV-LACZ in Myotubes, signal relative to DMSO ([2]; 5 uM) | CMV-LACZ in Myotubes, signal relative to DMSO ([2]; 10 uM) | CMV-LACZ in Myotubes, signal relative to DMSO ([2]; 20 uM) | CMV-LACZ in Myotubes, signal relative to DMSO ([2]; 40 uM) | Burkin Assay in Myotubes, α7 integrin LacZ reporter signal relative to DMSO ([3]; 0.5 uM) | Burkin Assay in Myotubes, α7 integrin LacZ reporter signal relative to DMSO ([3]; 1 uM) | Burkin Assay in Myotubes, α7 integrin LacZ reporter signal relative to DMSO ([3]; 5 uM) | Burkin Assay in Myotubes, α7 integrin LacZ reporter signal relative to DMSO ([3]; 10 uM) | Burkin Assay in Myotubes, α7 integrin LacZ reporter signal relative to DMSO ([3]; 20 uM) | Burkin Assay in Myotubes, α7 integrin LacZ reporter signal relative to DMSO ([3]; 40 uM) | also measured
Cc1c(C(=O)N2CCCCC2)c(S(=O)(=O)Nc2cccc(Br)c2)c(C)n1C [MLS001096269-01] | – | – | – | – | – | – | – | – | – | – | – | – | – | – | – | – | fold induction at 0.5 µM ([1]; Mus musculus, Myoblast, 48 h, 0.5 uM, read-out: Burkin Assay in Myoblasts, value relative to DMSO): 1.04; fold induction at 1 µM ([1]; Mus musculus, Myoblast, 48 h, 1 uM, read-out: Burkin Assay in Myoblasts, value relative to DMSO): 1.01; fold induction at 5 µM ([1]; Mus musculus, Myoblast, 48 h, 5 uM, read-out: Burkin Assay in Myoblasts, value relative to DMSO): 0.941; fold induction at 10 µM ([1]; Mus musculus, Myoblast, 48 h, 10 uM, read-out: Burkin Assay in Myoblasts, value relative to DMSO): 1.03; fold induction at 20 µM ([1]; Mus musculus, Myoblast, 48 h, 20 uM, read-out: Burkin Assay in Myoblasts, value relative to DMSO): 1.05; fold induction at 40 µM ([1]; Mus musculus, Myoblast, 48 h, 40 uM, read-out: Burkin Assay in Myoblasts, value relative to DMSO): 1.2; fold induction at 5 µM ([2]; Mus musculus, C2C12, read-out: CMV-LACZ in Myotubes, signal relative to DMSO, 5 uM): 1.09; fold induction at 10 µM ([2]; Mus musculus, C2C12, read-out: CMV-LACZ in Myotubes, signal relative to DMSO, 10 uM): 0.74; fold induction at 20 µM ([2]; Mus musculus, C2C12, read-out: CMV-LACZ in Myotubes, signal relative to DMSO, 20 uM): 0.986; fold induction at 40 µM ([2]; Mus musculus, C2C12, read-out: CMV-LACZ in Myotubes, signal relative to DMSO, 40 uM): 0.775; fold induction at 0.5 µM ([3]; Mus musculus, Myotube, 0.5 uM, read-out: Burkin Assay in Myotubes (signal relative to DMSO)): 0.999; fold induction at 1 µM ([3]; Mus musculus, Myotube, 1 uM, read-out: Burkin Assay in Myotubes (signal relative to DMSO)): 1.09; fold induction at 5 µM ([3]; Mus musculus, Myotube, 5 uM, read-out: Burkin Assay in Myotubes (signal relative to DMSO)): 1.31; fold induction at 10 µM ([3]; Mus musculus, Myotube, 10 uM, read-out: Burkin Assay in Myotubes (signal relative to DMSO)): 1.12; fold induction at 20 µM ([3]; Mus musculus, Myotube, 20 uM, read-out: Burkin Assay in Myotubes (signal relative to DMSO)): 1.13; fold induction at 40 µM ([3]; Mus musculus, Myotube, 40 uM, read-out: Burkin Assay in Myotubes (signal relative to DMSO)): 0.912
CC1CCCCC12NC(=O)N(CC(=O)OCc1cccc(F)c1)C2=O (stereo not shown) [MLS002161350-01] | 0.9404 | 0.9236 | 0.9531 | 0.9514 | 0.822 | 0.8262 | 0.906 | 0.9679 | 0.8847 | 1.046 | 0.9844 | 1.177 | 0.7783 | 0.987 | 1.049 | 1.116 | –
CC(=O)Nc1nonc1-c1nc2ccccc2n1CCC(C)C [MLS000085522-01] | 0.9927 | 0.872 | 1.118 | 0.9531 | 0.9728 | 0.7481 | 1.092 | 0.9804 | 0.7733 | 0.9509 | 0.9622 | 0.8415 | 0.872 | 0.9249 | 1.029 | 0.556 | –
O=C(Cn1cccc1C(=O)c1ccccc1)NCCCc1ccccc1 [MLS001110618-01] | 0.9525 | 1.03 | 0.9228 | 1.005 | 0.9713 | 1.083 | 0.8954 | 0.9336 | 1.0555 | 0.4765 | 0.9526 | 1.067 | 1.114 | 1.252 | 1.0381 | 0.9463 | –
